Measured values: patent publication US7026348B2, “Indole sPLA2 inhibitors” (Eli Lilly and Company, priority 1998, dated 2006)
Where a name gives a salt, the structure may show the parent alone.

target: T1, recombinant human secreted phospholipase A2 (Homo sapiens, UniProt P14555); assay: chromogenic assay of recombinant human secreted phospholipase A2 inhibition; type: biochemical; settings: diheptanoyl thio-PC substrate, pH 7.5, 40° C. for 30 minutes, absorbance at 405 nanometers, triplicate; read-out: Inhibition of human secreted PLA2 IC50 ± mean deviation
T1 sequence (P14555 21-144): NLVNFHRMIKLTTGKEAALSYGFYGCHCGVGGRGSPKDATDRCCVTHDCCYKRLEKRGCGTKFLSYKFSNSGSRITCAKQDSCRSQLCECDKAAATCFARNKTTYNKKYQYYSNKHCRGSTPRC
Source text: The following chromogenic assay procedure was used to identify and evaluate inhibitors of recombinant human secreted phospholipase A2. The assay described herein has been adapted for high volume screening using 96 well microtiter plates. A general description of this assay method is found in the article, “Analysis of Human Synovial Fluid Phospholipase A2 on Short Chain Phosphatidylcholine-Mixed Micelles: Development of a Spectrophotometric Assay Suitable for a Microtiterplate Reader”, by Laure J. Reynolds, Lori L. Hughes, and Edward A Dennis, Analytical Biochemistry, 204, pp. 190-197, 1992 (the disclosure of which is incorporated herein by reference):
REACTION BUFFER— • CaCl2.2H2O (1.47 g/L) • KCl (7.455 g/L) • Bovine Serum Albumin (fatty acid free)(1 g/L) • (Sigma A-7030, product of Sigma Chemical Co., St. Louis Mo., USA) • TRIS HCl (3.94 g/L) • pH 7.5 (adjust with NaOH)
ENZYME BUFFER— • 0.05 NaOAc.3H2O, pH 4.5 • 0.2 NaCl • Adjust pH to 4.5 with acetic acid
DTNB—5,5′-dithiobis-2-nitrobenzoic acid
RACEMIC DIHEPTANOYL THIO—PC
racemic 1,2-bis(heptanoylthio)-1,2-dideoxy-sn-glycero-3-phosphorylcholine
TRITON X-100™ prepare at 6.249 mg/ml in reaction buffer to equal […].
A measured volume of racemic dipheptanoyl thio PC supplied in chloroform at a concentration of 100 mg/ml is taken to dryness and redissolved in 10 millimolar
TRITON X-100™ nonionic detergent aqueous solution. Reaction Buffer is added to the solution, then DTNB to give the Reaction Mixture.
The reaction mixture thus obtained contains 1 mM diheptanoly thio-PC substrate, 0.29 mm Triton X-100™ detergent, and 0.12 mm DTMB in a buffered aqueous solution at pH 7.5.
• 1. Add 0.2 ml reaction mixture to all wells; • 2. Add 10 ul test compound (or solvent blank) to appropriate wells, mix 20 seconds; • 3. Add 50 nanograms of sPLA2 (10 microliters) to appropriate wells; • 4. Incubate plate at 40° C. for 30 minutes; • 5. Read absorbance of wells at 405 nanometers with an automatic plate reader.
All compounds were tested in triplicate. Typically, compounds were tested at a final concentration of 5 ug/ml. […] Lack of color development at 405 nanometers evidenced inhibition. Compounds initially found to be active were reassayed to confirm their activity and, if sufficiently active, IC50 values were determined. […] In all cases, % inhibition measured at 405 nanometers generated by enzyme reactions containing inhibitors relative to the uninhibited control reactions was determined. Each sample was titrated in triplicate and result values were averaged for plotting and calculation of IC50 values. IC50 were determined by plotting log concentration versus inhibition values in the range from 10-90% inhibition.

| Compound | IC50 |
| --- | --- |
| CCc1c(C(=O)C(N)=O)c2c(OCC(=O)NS(C)(=O)=O)cccc2n1Cc1ccccc1 [Example 1, 1-benzyl-2-ethyl-4-methanesulfonamidoylmethyloxy-indole-3-glyoxylamide] | 12 nM |
| CCc1c(C(=O)C(N)=O)c2c(OCC(=O)NS(=O)(=O)c3ccccc3)cccc2n1Cc1ccccc1 [Example 2, 1-benzyl-2-ethyl-4-benzenesulfonamidoylmethyloxy-indole-3-glyoxylamide] | 7 nM |
| CCc1c(C(=O)C(N)=O)c2c(OCC(=O)NS(=O)(=O)C(F)(F)F)cccc2n1Cc1ccccc1 [Example 3, 1-benzyl-2-ethyl-4-trifluoromethanesulfonamidoylmethyloxy-indole-3-glyoxylamide] | 17 nM |
| CCc1c(C(=O)C(N)=O)c2c(OCC(=O)NS(=O)(=O)c3ccccc3C)cccc2n1Cc1ccccc1 [Example 4, 1-benzyl-2-ethyl-4-(2-methylbenzenesulfonamidoylmethyloxy)-indole-3-glyoxylamide] | 9 nM |
| CCc1c(C(=O)C(N)=O)c2c(OCC(=O)NS(=O)(=O)c3ccc(CCN)cc3)cccc2n1Cc1ccccc1 [Example 5, 1-benzyl-2-ethyl-4-(4-(2-aminoethyl)benzenesulfonamidoylmethyloxy)-indole-3-glyoxylamide, Hydrochloride Salt] | 16 nM |
